The results in this text go back to ChEMBL document CHEMBL1127689, “Novel 4-(aryloxy)tetrahydropyridine analogs of MPTP as monoamine oxidase A and B substrates” (J Med Chem, 1994).

The structures appear in SMILES notation.

The nature of the assay: Relative specificity for human MAO-A and bovine MAO-B.
`CN1CC=C(c2ccccc2)CC1` gave a Selectivity of 0.27.

Molecule `CN1CC=C(Oc2ccc(C(C)(C)C)cc2)CC1` had a Selectivity of 2.17.

In turn, `CN1CC=C(Oc2ccc(Cl)cc2Cl)CC1` displayed a Selectivity of 2.47.

Take `CN1CC=C(Oc2ccc(-c3ccccc3)cc2)CC1`: the Selectivity amounted to 4.72.

The molecule `CN1CC=C(Cc2cccc3ccccc23)CC1` had a Selectivity of 24.7.

Turning to `CN1CC=C(Cc2ccc3ccccc3c2)CC1`, the Selectivity came to 10.8.

Molecule `CCCCc1ccc(OC2=CCN(C)CC2)cc1` returned a Selectivity of 1.54.

Turning to `CN1CC=C(Oc2ccccc2)CC1`, the Selectivity turned out to be 0.57.

In the case of `CN1CC=C(Oc2cccc3ccccc23)CC1`, the Selectivity was found to be 2.77.

In turn, `CN1CC=C(Cc2ccccc2)CC1` yielded a Selectivity of 0.11.

`CN1CC=C(Oc2ccc3ccccc3c2)CC1` showed a Selectivity of 2.21.
